Measured values from patent publication US12226404B2, “Methods for making compositions for pulmonary administration” (Board of Regents, the University of Texas System, priority 2007, dated 2025).
Converted amounts (≈) assume the structure as drawn. “And” between values parts separate entries of the source, which are not always exact repeats. Identical values can stand only once.

Key:
[1] = BET specific surface area analysis; format: physicochemical
Method: As used herein, the term “BET Analysis” refers to a method for measuring the surface area of the exposed surface of a solid sample on the molecular scale. The BET (Brunauer, Emmet, and Teller) theory is typically used to determine the area of solids. Commonly, samples are prepared by heating and simultaneously evacuating or flowing gas over the sample to remove the liberated impurities. The prepared samples are then cooled with liquid nitrogen and analyzed by measuring the volume of gas (typically N2 or Kr) adsorbed at specific pressures. Krypton gas is often used when the measured surface is expected to be less than 2 m^2/g (typically pharmaceutical samples and natural organic materials). The skilled artisan will recognize that several types of instruments may be used for measuring surface area, which depends upon the extent of the surface or the gas required to achieve the best results. […]
BET Specific Surface Area Analysis. Specific surface area was measured using a Nova 2000 v. […] The data recorded were then analyzed according to BET theory using NOVA Enhanced Data Reduction Software v. […]
Example 3. […] Specific surface area was measured using a Nova 2000 v 6.11 instrument (Quantachrome Instruments, Boynton Beach, FL). […] The data recorded were then analyzed according to BET theory using NOVA Enhanced Data Reduction Software v. […]

[2] = Dissolution testing below equilibrium solubility (sink) in modified simulated lung fluid with 0.02% DPPC; format: physicochemical; settings: SLF 0.02% DPPC
Method: Dissolution Testing at Below Equilibrium Solubility. Dissolution testing at below equilibrium solubility was performed on the URF powder samples using a United States Pharmacopeia (USP) 27 Type 2 dissolution apparatus (VanKel VK6010 Dissolution Tester with a Vanderkamp VK650A heater/circulator, Varian, Inc. Palo Alto, CA). […] The dissolution media was maintained at 37.0±0.2° C. and stirred at a constant rate of 50 rpm. Samples (1 mL) were withdrawn at 10, 20, 30, 60 and 120 minute time points, filtered using a 0.45 μm GHP Acrodisc filter (VWR, Inc., West Chester, PA) and analyzed using a Shimadzu LC-10 liquid chromatograph (Shimadzu Corporation, Kyoto, Japan) equipped with an Alltech ODS-2, 5 μm C18 column (Alltech Associates, Inc., Deerfield, IL). The mobile phase consisted of a 70:30 (v/v) ACN: Water mixture, used at a flow rate of 1 mL/min. The maximum absorbance was measured at wavelength λmax=214 nm.
Example 5. […] Samples (1 mL) were withdrawn at 10, 20, 30, 60, and 120 minute time points, filtered using a 0.45 μm GHP Acrodisc filter (VWR, Inc. Westchester, PA), and analyzed using a Shimadzu LC-10 liquid chromatograph (Shimadzu Corporation, Kyoto, Japan) equipped with an Altech ODS-2, 5 μm C18 column (Altech Associates, Deerfield, IL). […] The maximum absorbance was measured at wavelength λ=214 nm.

[3] = Equilibrium solubility of TAC in modified simulated lung fluid with 0.02% DPPC; format: physicochemical; settings: modified simulated lung fluid (SLF) with 0.02% DPPC, 37 °C, fassgf or other biorelevant, thermodynamic from solid, modified simulated lung fluid 0.02% DPPC
[4] = adult patients; cited from earlier work
[5] = Evaluation of rodent dosing apparatus with nebulized ITZ colloidal suspension, in vivo lung concentration; set-up: species or system outbred ICR mice; settings: individual mice, 5 min nebulization
Excerpt: As used herein, the term “pre-clinical rodent dosing apparatus” refers to the apparatus reported by J. T. McConville, P. Sinswat, J. Tam, K. P. Johnston and R. O. Williams III, In vitro and in vivo validation of a high-concentration pre-clinical rodent dosing apparatus for inhalation, Proceedings of the American Association of Pharmaceutical Scientists, San Antonio, TX, October, 2006, relevant portions incorporated herein by reference. An animal dosing chamber was designed which consisted of hollow tubing (20×4.5 cm; nominal wall thickness of 0.4 cm) with four 1.75 cm adapter holes drilled at 7 cm intervals (2 holes along each side). The adapter holes were constructed to accept rodent restraint tubes from the Battelle® toxicology testing unit. A standard itraconazole (ITZ) colloidal suspension was nebulized into the apparatus for 5 minutes using a micro-pump nebulizer. Atomized droplets containing ITZ were driven into the chamber at a flow rate of 1 L/min. ITZ concentrations were measured in vitro at the 4 adapter ports, and in vivo from the lungs of 8 outbred-ICR mice in the appropriate mice restraining tubes at the adapter ports.
Example 11. […] ITZ concentrations were measured in vitro at the 4 adapter ports, and in vivo from the lungs of male outbred ICR mice in the appropriate mice restraining tubes at the adapter ports. […]

Specific Surface Area ([1]; Table 2)	Surface Area (BET) ([1]; URF study, Table 4)	dissolution of TAC ([2]; at 1 hr, 37° C.)	dissolution of TAC ([2]; in 30 minutes, sink conditions)	solubility thermodynamic [3]	Structure (SMILES)	average oral bioavailability [4]	ITZ Conc. in Lung Tissue [5]
0.533 m^2/g	0.53 m^2/g	30%	30%	~6.8 µg/mL (≈ 8.46 µM)	C=CC[C@@H]1/C=C(\C)C[C@H](C)C[C@H](OC)[C@H]2O[C@@](O)(C(=O)C(=O)N3CCCC[C@H]3C(=O)O[C@H](/C(C)=C/[C@@H]3CC[C@@H](O)[C@H](OC)C3)[C@H](C)[C@@H](O)CC1=O)[C@H](C)C[C@@H]2OC [unprocessed TAC, Tacrolimus]	approximately 25%	
					CCC(C)n1ncn(-c2ccc(N3CCN(c4ccc(OCC5COC(Cn6cncn6)(c6ccc(Cl)cc6Cl)O5)cc4)CC3)cc2)c1=O (stereo not shown) [ITZ, itraconazole]		21.6 µg/g and 20.2 µg/g and 18.3 µg/g and 13.5 µg/g and 15.9 µg/g and 18.6 µg/g and 19.2 µg/g and 22.7 µg/g
